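Interpolation was linear, between the two tested concentrations surrounding the appropriate level; five concentrations were tested over 48 hours in 96-well plates. The concentration for 50% growth inhibition is given as GI50. TGI: total growth inhibition.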
Assays:
Test in all cases: NCI tumour cell line growth inhibition, 48 h
[1] = system: NCI-H226 lung
[2] = system: TK-10 renal
[3] = system: SF-295 CNS
[4] = system: NCI/ADR-RES ovarian
[5] = system: HCT-15 colon
[6] = system: SK-MEL-5 melanoma
[7] = system: K-562 leukemia
[8] = system: MOLT-4 leukemia
[9] = system: SN12C renal
[10] = system: SNB-19 CNS
[11] = system: SNB-75 CNS
[12] = system: NCI-H23 lung
[13] = system: 786-0 renal
[14] = system: RXF 393 renal
[15] = system: SF-268 CNS
[16] = system: MCF7 breast
[17] = system: SR leukemia
[18] = system: DU-145 prostate
[19] = system: RPMI-8226 leukemia
[20] = system: HT29 colon
[21] = system: KM12 colon
[22] = system: CCRF-CEM leukemia
[23] = system: COLO 205 colon
[24] = system: UACC-62 melanoma
[25] = system: A549 NSCLC
[26] = system: NCI-H460 lung
[27] = system: MDA-MB-435
[28] = system: A498 renal
[29] = system: T-47D breast
[30] = system: UACC-257 melanoma
[31] = system: NCI-H522 lung
[32] = system: HS 578T breast
[33] = system: HOP-62 NSCLC
[34] = system: MDA-MB-231 breast
[35] = system: OVCAR-3 ovarian
[36] = system: EKVX NSCLC
[37] = system: CAKI-1 renal
[38] = system: HCC-2998 colon
[39] = system: PC-3 prostate
[40] = system: U251 CNS
[41] = system: UO-31 renal
[42] = system: HL-60(TB) leukemia
[43] = system: LOX IMVI melanoma
[44] = system: SK-MEL-28 melanoma
[45] = system: M14 melanoma
[46] = system: SW-620 colon
[47] = system: SF-539 CNS
[48] = system: SK-MEL-2 melanoma
[49] = system: IGROV1 ovarian
[50] = system: SK-OV-3 ovarian
[51] = system: OVCAR-5 ovarian
[52] = system: BT-549 breast
[53] = system: HOP-92 NSCLC
[54] = system: OVCAR-4 ovarian
[55] = system: HCT-116 colon
[56] = system: OVCAR-8 ovarian
[57] = system: ACHN renal

Cc1sc2ncn(Cc3ccc(Cl)c(Cl)c3)c(=O)c2c1C
GI50 [1]: > 100 µM
TGI [1]: > 100 µM
GI50 [2]: 1.81 µM
TGI [2]: 7.91 µM
GI50 [3]: 3.85 µM
TGI [3]: 22.7 µM
GI50 [4]: 27.5 µM
TGI [4]: > 100 µM
GI50 [5]: 19.4 µM
TGI [5]: > 100 µM
GI50 [6]: 54.4 µM
TGI [6]: > 100 µM
GI50 [7]: 5.4 µM
TGI [7]: > 100 µM
GI50 [8]: 79.3 µM
TGI [8]: > 100 µM
GI50 [9]: 20.5 µM
TGI [9]: > 100 µM
GI50 [10]: 38 µM
TGI [10]: > 100 µM
GI50 [11]: 29.3 µM
TGI [11]: > 100 µM
GI50 [12]: 32.5 µM
TGI [12]: > 100 µM
GI50 [13]: 34.2 µM
TGI [13]: > 100 µM
GI50 [14]: > 100 µM
TGI [14]: > 100 µM
GI50 [15]: 25.5 µM
TGI [15]: > 100 µM
GI50 [16]: 25.6 µM
TGI [16]: > 100 µM
GI50 [17]: 29.8 µM
TGI [17]: > 100 µM
GI50 [18]: 44.3 µM
TGI [18]: > 100 µM
GI50 [19]: 12.2 µM
TGI [19]: > 100 µM
GI50 [20]: 77.7 µM
TGI [20]: > 100 µM
GI50 [21]: 2.44 µM
TGI [21]: 11.7 µM
GI50 [22]: 27.7 µM
TGI [22]: > 100 µM
GI50 [23]: 63.2 µM
TGI [23]: > 100 µM
GI50 [24]: 13.2 µM
TGI [24]: > 100 µM
GI50 [25]: 31.3 µM
TGI [25]: > 100 µM
GI50 [26]: 51.5 µM
TGI [26]: > 100 µM
GI50 [27]: 8.72 µM
TGI [27]: > 100 µM
GI50 [28]: 35.7 µM
TGI [28]: > 100 µM
GI50 [29]: 24.8 µM
TGI [29]: > 100 µM
GI50 [30]: 78.8 µM
TGI [30]: > 100 µM
GI50 [31]: 13.1 µM
TGI [31]: 73.9 µM
GI50 [32]: 35.2 µM
TGI [32]: > 100 µM
GI50 [33]: 14 µM
TGI [33]: 36.7 µM
GI50 [34]: 24.7 µM
TGI [34]: 77.9 µM
GI50 [35]: 8.04 µM
TGI [35]: 38.3 µM
GI50 [36]: 22.2 µM
TGI [36]: > 100 µM
GI50 [37]: 3.47 µM
TGI [37]: 32.9 µM
GI50 [38]: 7.39 µM
TGI [38]: 30.1 µM
GI50 [39]: 20.1 µM
TGI [39]: > 100 µM
GI50 [40]: 27.6 µM
TGI [40]: > 100 µM
GI50 [41]: 31.4 µM
TGI [41]: > 100 µM
GI50 [42]: > 100 µM
TGI [42]: > 100 µM
GI50 [43]: 25.8 µM
TGI [43]: > 100 µM
GI50 [44]: 77.9 µM
TGI [44]: > 100 µM
GI50 [45]: 24.4 µM
TGI [45]: 64 µM
GI50 [46]: 59.8 µM
TGI [46]: > 100 µM
GI50 [47]: 37 µM
TGI [47]: > 100 µM
GI50 [48]: 27.7 µM
TGI [48]: > 100 µM
GI50 [49]: 9.28 µM
TGI [49]: 42.8 µM
GI50 [50]: 46.8 µM
TGI [50]: > 100 µM
GI50 [51]: 21.6 µM
TGI [51]: 79.7 µM
GI50 [52]: 58.9 µM
TGI [52]: > 100 µM
GI50 [53]: 18.4 µM
TGI [53]: 73.7 µM
GI50 [54]: 28.2 µM
TGI [54]: 68.9 µM
GI50 [55]: 17.4 µM
TGI [55]: 44.8 µM
GI50 [56]: 50.8 µM
TGI [56]: > 100 µM
GI50 [57]: 12.4 µM
TGI [57]: > 100 µM

Source: PubChem BioAssay (NCI)
